# Patent US12029751B2, “Therapeutic agent for nervous system disease” (OSAKA UNIVERSITY, priority 2017, dated 2024)
# Key:
# [1] = test system: microglia cell line (6-3 cells); assay: Western blot of M1 markers (iNOS, IL-1β) and M2 markers (Arg1, CD206) in microglia; assay type: cell-based
# Description: To a microglia cell line (6-3 cells), LPS (100 ng/ml) and an anti-inflammatory cytokine IL-4 (20 ng/ml) were added. Methylcobalamin solutions each having a different concentration ranging from 1 nM to 1 mM were added to the mixture, and proteins were recovered from each mixture at 1 and 3 days after the addition. Electrophoresis and transfer to a membrane were performed, the membrane was blocked, and the cells were allowed to react with each of primary antibodies against M1 markers (iNOS and IL-1β) and M2 markers (Arg1 and CD206) at 4° C. overnight. Cells were allowed to react with a secondary antibody at room temperature for 1 hour, and bands were detected using a detector.
# The primary antibodies used were an anti-iNOS antibody, an anti-IL-1β antibody, an anti-Arg1 antibody, and an anti-CD206 (a mannose receptor) antibody. The secondary antibody used was an Anti-Rabbit IgG, HRP-Linked Whole Ab Sheep.
# [2] = test system: photocoagulation-induced cerebral infarction model C57BL/6J mice; assay: Rotarod test in photocoagulation-induced cerebral infarction model; assay type: in vivo, mouse
# Description: Eight to 10-week-old male C57BL/6J mice (about 24 g) were used. A photocoagulation-induced cerebral infarction model for laser light irradiation after rose bengal administration was constructed. In this model, the skull of each mouse was drilled to open a hole having a center at 2 mm from the anterior fontanel in the outward direction. At 5 minutes after a photosensitive dye rose bengal was administered, the right motor cortex as a center was irradiated with laser light to create cerebral infarction in the right lateral motor cortex. An osmotic pump (ALZET osmotic pumps, for 2-week operation) was embedded immediately after the creation of the cerebral infarction. The mice were divided into a methylcobalamin treatment group (N=3) and an untreated group (N=4), and rotarod tests (accelerating velocity method) were carried out at 2, 4, 7, 9, 11, and 14 days after the surgery creating cerebral infarction. The time until a mouse fell from a rotarod was measured, and a ratio to a maximum of 300 seconds as baseline was calculated.
smiles,measurement,setting,value
"C/C1=C2/[N-][C@H]([C@H](CC(N)=O)[C@@]2(C)CCC(=O)NC[C@@H](C)OP(=O)([O-])O[C@H]2[C@@H](O)[C@@H](n3cnc4cc(C)c(C)cc43)O[C@@H]2CO)[C@]2(C)N=C(/C(C)=C3N=C(/C=C4N=C1[C@@H](CCC(N)=O)C\4(C)C)[C@@H](CCC(N)=O)[C@]\3(C)CC(N)=O)[C@@H](CCC(N)=O)[C@]2(C)CC(N)=O.[CH3-].[Co+3] [MeCbl, methylcobalamin]",amount of Arg1 protein as compared with IL-4 alone,[1]; IL-4 + 1 nM to 10 μM methylcobalamin,significantly increased
same,amount of CD206 as compared with IL-4 alone,[1]; IL-4 + 10 nM to 100 nM methylcobalamin,significantly increased
same,"Arg1 (amount of protein, IL-4 alone = 1.00)",[1]; MeCbl 1 nM,1.78
same,"CD206 (amount of protein, IL-4 alone = 1.00)",[1]; MeCbl 1 nM,1.11
same,"Arg1 (amount of protein, IL-4 alone = 1.00)",[1]; MeCbl 10 nM,2.03
same,"CD206 (amount of protein, IL-4 alone = 1.00)",[1]; MeCbl 10 nM,1.42
same,"Arg1 (amount of protein, IL-4 alone = 1.00)",[1]; MeCbl 100 nM,2.72
same,"CD206 (amount of protein, IL-4 alone = 1.00)",[1]; MeCbl 100 nM,1.39
same,"Arg1 (amount of protein, IL-4 alone = 1.00)",[1]; MeCbl 1 μM,2.20
same,"CD206 (amount of protein, IL-4 alone = 1.00)",[1]; MeCbl 1 μM,1.17
same,"Arg1 (amount of protein, IL-4 alone = 1.00)",[1]; MeCbl 10 μM,2.08
same,"CD206 (amount of protein, IL-4 alone = 1.00)",[1]; MeCbl 10 μM,1.17
same,"Arg1 (amount of protein, IL-4 alone = 1.00)",[1]; MeCbl 100 μM,1.37
same,"CD206 (amount of protein, IL-4 alone = 1.00)",[1]; MeCbl 100 μM,1.24
same,"Arg1 (amount of protein, IL-4 alone = 1.00)",[1]; MeCbl 1 mM,0.59
same,"CD206 (amount of protein, IL-4 alone = 1.00)",[1]; MeCbl 1 mM,1.11
same,amount of iNOS protein as compared with LPS alone,[1]; LPS + at least 10 nM methylcobalamin,significantly decreased
same,amount of IL-1β protein as compared with LPS alone,[1]; LPS + at least 1 μM methylcobalamin,significantly decreased
same,"IL-1β (amount of protein, LPS alone = 1.00)",[1]; MeCbl 1 nM,1.02
same,"iNOS (amount of protein, LPS alone = 1.00)",[1]; MeCbl 1 nM,0.87
same,"IL-1β (amount of protein, LPS alone = 1.00)",[1]; MeCbl 10 nM,0.95
same,"iNOS (amount of protein, LPS alone = 1.00)",[1]; MeCbl 10 nM,0.74
same,"IL-1β (amount of protein, LPS alone = 1.00)",[1]; MeCbl 100 nM,0.83
same,"iNOS (amount of protein, LPS alone = 1.00)",[1]; MeCbl 100 nM,0.76
same,"IL-1β (amount of protein, LPS alone = 1.00)",[1]; MeCbl 1 μM,0.72
same,"iNOS (amount of protein, LPS alone = 1.00)",[1]; MeCbl 1 μM,0.61
same,"IL-1β (amount of protein, LPS alone = 1.00)",[1]; MeCbl 10 μM,0.58
same,"iNOS (amount of protein, LPS alone = 1.00)",[1]; MeCbl 10 μM,0.46
same,"IL-1β (amount of protein, LPS alone = 1.00)",[1]; MeCbl 100 μM,0.53
same,"iNOS (amount of protein, LPS alone = 1.00)",[1]; MeCbl 100 μM,0.36
same,"IL-1β (amount of protein, LPS alone = 1.00)",[1]; MeCbl 1 mM,0.32
same,"iNOS (amount of protein, LPS alone = 1.00)",[1]; MeCbl 1 mM,0.05
same,"rotarod test: time until fall, ratio to a maximum of 300 seconds as baseline",[2]; 0 day after PIT operation (baseline),0.998
same,"rotarod test: time until fall, ratio to a maximum of 300 seconds as baseline","[2]; 2 days after PIT operation, osmotic pump",0.470
same,"rotarod test: time until fall, ratio to a maximum of 300 seconds as baseline","[2]; 2 days after PIT operation, osmotic pump, listed as methylcobalamin",significantly improved
same,"rotarod test: time until fall, ratio to a maximum of 300 seconds as baseline","[2]; 4 days after PIT operation, osmotic pump",0.573
same,"rotarod test: time until fall, ratio to a maximum of 300 seconds as baseline","[2]; 4 days after PIT operation, osmotic pump, listed as methylcobalamin",significantly improved
same,"rotarod test: time until fall, ratio to a maximum of 300 seconds as baseline","[2]; 7 days after PIT operation, osmotic pump",0.370
same,"rotarod test: time until fall, ratio to a maximum of 300 seconds as baseline","[2]; 9 days after PIT operation, osmotic pump",0.437
same,"rotarod test: time until fall, ratio to a maximum of 300 seconds as baseline","[2]; 9 days after PIT operation, osmotic pump, listed as methylcobalamin",significantly improved
same,"rotarod test: time until fall, ratio to a maximum of 300 seconds as baseline","[2]; 11 days after PIT operation, osmotic pump",0.521
same,"rotarod test: time until fall, ratio to a maximum of 300 seconds as baseline","[2]; 14 days after PIT operation, osmotic pump",0.510
